Patent publication US12698523B2, “Enhancement of nucleic acid polymerization by aromatic compounds” (priority 2019, dated 2026)

Legend:
[1] = test system: DNA polymerase; experiment: Screen of PEMs for enhancement of XNTP polymerization (primer extension reaction, gel electrophoresis); format: biochemical; details: for DNA polymerase-mediated primer extension with XNTPs (length of extension products): FIG. 4 gel, no PEM additive: up to only around 14 XNTPs
From the text: The Sequencing by Expansion (SBX) methodology developed by the inventors provides significant performance enhancements in sequence read efficiency and accuracy of Xpandomers relative to native DNA. However, initial transcription of the sequence of the natural DNA template onto the measurable Xpandomer relies on the ability of DNA polymerase to utilize XNTPs as substrates (the generalized structure of an XNTP is discussed herein with reference to FIG. 1A and FIG. 2). […] In an effort to improve the efficiency and accuracy of XNTP polymerization into Xpandomers, several PEMs were screened for the ability to enhance DNA polymerase primer extension reactions using XNTPs as substrates.
A representative primer extension reaction may include the following reagents: 2 pmol primer, 2.2 pmol 45mer oligonucleotide template, 50 pmol of each XNTP (XATP, XCTP, XGTP, and XTTP), 50 Mm Tris HCl, Ph 6.79, 200 Mm NaCl, 20% PEG, 5% NMS, 0.5 nmol polyphosphate 60.19, 0.3 Mm MnCl2, and 0.6 μg of purified recombinant DNA polymerase protein. Reactions may be run for 1 hr at 23° C. Reaction products (i.e., constrained Xpandomers) are treated to cleave the phosphoramidate bonds, thereby generating linearized Xpandomers. Reaction products may be analyzed using gel electrophoresis on 4-12% acrylamide gels to resolve and visualize Xpandomer products of different lengths. For the PEM screen described above, PEMs were typically tested in the micro to millimolar range.
Again, this PEM activity is specific for compound 2, as other unrelated aromatic compounds had no effect (lanes 2-7).

[2] = molecular target: T1, C4552 DNA polymerase (Saccharolobus solfataricus, UniProt Q97W02, A155G/A42V/D156R/D292Y/D294N/E291S/E324K/E325K/E327K/E79L/G187P/G299W/I153V/I189F/I248T/I295S/K152A/K317Q/K321Q/K56Y/K78D/L293W/M76W/N188Y/P184Q/Q82W/Q83G/R300S/S297Y/S86E/T290K/T301W/V289W/V296Q); experiment: Primer extension assay with three 100mer templates derived from the HIV1, 2 and 3 genomes; format: biochemical, Sulfolobus solfataricus; details: 0.5 Mm PEM; HIV1, HIV2, HIV3 100mer templates; 30 minutes at 23° C.; FIG. 9
T1 construct: made in house
T1 sequence (Q97W02 other isoform, or with tags, fused parts or gaps with the stated changes): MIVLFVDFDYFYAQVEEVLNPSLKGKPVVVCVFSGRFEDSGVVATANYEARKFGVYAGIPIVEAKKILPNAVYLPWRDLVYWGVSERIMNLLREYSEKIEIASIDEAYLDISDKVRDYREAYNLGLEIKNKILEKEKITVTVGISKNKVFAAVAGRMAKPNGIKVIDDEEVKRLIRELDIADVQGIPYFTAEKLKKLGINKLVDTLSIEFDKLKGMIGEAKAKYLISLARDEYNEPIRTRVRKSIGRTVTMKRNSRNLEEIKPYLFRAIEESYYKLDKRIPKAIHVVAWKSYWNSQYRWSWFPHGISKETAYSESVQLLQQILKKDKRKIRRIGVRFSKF
Method: PEM activity of compounds 9-11 was tested in primer extension assays using three 100mer templates, derived from the HIV1, 2, and 3 genomes. Primer extension reactions included the following reagents: 75 Mm TrisCl, Ph 8.44, 175 Mm NH4Oac, 20% PEG8K, 5% NMS, 0.8 nmol PP-60.20, 0.6 Mm MnCl2, 2.3 μg Tth single-strand binding protein (SSB), 0.5 M or 1 M urea, 200 pmol each XNTP, 1.1 pmol template, 1 pmol oligonucleotide primer, 1.2 μg purified recombinant C4552 DNA polymerase, and 0.5 Mm PEM. 10 μL primer extension reactions were run for 30 minutes at 23° C. and reaction products were analyzed by gel electrophoresis.

[3] = molecular target: T2, C4760 DNA polymerase (a variant of DPO4, SEQ ID NO:2) (Saccharolobus solfataricus, UniProt Q97W02, A155G/A42V/D156R/D292Y/D294N/E291S/E324K/E325K/E327K/E63R/E79L/G187P/G299W/I153V/I189F/I248T/I295S/K152A/K317Q/K321Q/K56Y/K78D/L293W/M76W/N188Y/P184Q/Q82W/Q83G/R300S/S297Y/S86E/T290K/T301W/V289W/V296Q); experiment: Primer extension assay with the HIV2 100mer template; format: biochemical, Sulfolobus solfataricus; details: HIV2-derived 100mer template
T2 construct: made in house
T2 sequence (Q97W02 other isoform, or with tags, fused parts or gaps with the stated changes): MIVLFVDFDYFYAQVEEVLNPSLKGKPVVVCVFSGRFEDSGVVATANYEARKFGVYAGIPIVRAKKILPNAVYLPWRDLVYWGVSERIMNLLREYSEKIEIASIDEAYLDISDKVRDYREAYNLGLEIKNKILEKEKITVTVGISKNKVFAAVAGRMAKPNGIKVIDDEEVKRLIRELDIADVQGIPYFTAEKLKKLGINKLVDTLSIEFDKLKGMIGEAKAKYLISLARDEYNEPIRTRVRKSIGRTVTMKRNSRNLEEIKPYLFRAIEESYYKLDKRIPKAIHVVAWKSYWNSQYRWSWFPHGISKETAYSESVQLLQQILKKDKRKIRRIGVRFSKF
Method: PEM activity of compound 12 was tested in primer extension assays using the HIV2 100mer template. Primer extension reactions included the following reagents: 50 Mm TrisCl, 200 Mm NH4Oac, 20% PEG8K, 5% NMS, 0.6 nmol PP-60.20, 0.6 Mm MnCl2, 2.75 μg/μl Eco single-strand binding protein (SSB), 1 M urea, 50 pmol each XNTP, 1.1 pmol template, 1 pmol oligonucleotide primer, 1.2 μg/μl purified recombinant C4760 DNA polymerase (SEQ ID NO:2), and 0.5, 1, or 1.5 Mm PEM. 10 μL primer extension reactions were run for 30 minutes at 23° C. and reaction products were analyzed by gel electrophoresis. […] Lanes 2-4 show primer extension products from reactions with a structurally related additive lacking robust PEM activity.
PEM activity of compounds 13 and 14 was tested in primer extension assays using the HIV2 100mer template. Primer extension reactions included the following reagents: 50 Mm TrisCl, 200 Mm NH4Oac, 20% PEG8K, 5% NMS, 0.6 nmol PP-60.20, 0.6 Mm MnCl2, 2.75 μg/μl Eco single-strand binding protein (SSB), 1 M urea, 50 pmol each XNTP, 1.1 pmol template, 1 pmol oligonucleotide primer, 1.2 μg/μl purified recombinant C4760 DNA polymerase (a variant of DPO4, see SEQ ID NO:2), and 0.5, 1, 1.52, or 2.5 Mm PEM. 10 μL primer extension reactions were run for 30 minutes at 23° C. and reaction products were analyzed by gel electrophoresis. A representative gel showing primer extension products is presented in FIG. 11 (the position of the full length HIV2 100mer is indicated by the arrow).
PEM activity of compounds 16, 17, and 18 and combinations thereof were tested in primer extension assays using the HIV2-derived 100mer template. Primer extension reactions included the following reagents: 50 Mm TrisCl, 200 Mm NH4Oac, 20% or 25% PEG8K, 5% NMS, 0.6 nmol PP-60.20, 0.6 Mm MnCl2, 2 μg Kod single-strand binding protein (SSB), 1 M urea, 50 pmol each XNTP, 1 pmol template, 1 pmol oligonucleotide primer, 1.2 μg purified recombinant C4760 DNA polymerase (a variant of DPO4, see SEQ ID NO:2), and 0.5-2 Mm PEM. 10 μL primer extension reactions were run for 30 minutes at 37° C. and reaction products were analyzed by gel electrophoresis. A representative gel showing primer extension products is presented in FIG. 13 (the position of a 100mer product is indicated by the arrow).

[4] = molecular target: T2, C4760 DNA polymerase (a variant of DPO4, SEQ ID NO:2); experiment: Primer extension on a 45mer RNA template derived from the HIV2 genome sequence; format: biochemical, Sulfolobus solfataricus; details: 2 Mm PEM; 45mer RNA template from HIV2 genome; 30 minutes at 37° C.
Method: To begin to investigate the potential of PEMs to enhance diverse polymerase reactions, the ability of PEMS to enable DNA polymerase to utilize RNA as a template was tested. An initial screen of several compounds set forth in Table I was conducted using a 45mer RNA template derived from the HIV2 genome sequence. Primer extension reactions included the following reagents: 50 Mm TrisCl, 200 Mm NH4Oac, 20% PEG8K, 5% NMS, 0.6 nmol PP-60.20, 0.6 Mm MnCl2, 2 μg Kod single-strand binding protein (SSB), 1 M urea, 50 pmol each XNTP, 0.5 pmol template, 0.5 pmol oligonucleotide primer, 1.2 μg purified recombinant C4760 DNA polymerase (a variant of DPO4, see SEQ ID NO:2), and 2 Mm PEM. 10 μL primer extension reactions were run for 30 minutes at 37° C. and reaction products were analyzed by gel electrophoresis.

## O=C(O)c1ccc(-n2cc(-c3cncc(-c4cn(-c5ccc(C(=O)O)c(O)c5)nn4)c3)nn2)cc1O [Compound 2, 4,4′-(pyridine-3,5-diylbis(1H-1,2,3-triazole-4,1-diyl))bis(2-hydroxybenzoic acid)]
[1]; FIG. 5 gel, compound at various concentrations (lanes 8-10)
  primer extension activity with XNTPs: significantly enhances primer extension activity

## O=C(O)c1ccc(-n2cc(-c3cccc(-c4cn(-c5ccc(C(=O)O)c(O)c5)nn4)c3)nn2)cc1O [Compound 3, 4,4′-(1,3-phenylenebis(1H-1,2,3-triazole-4,1-diyl))bis(2-hydroxybenzoic acid)]
[1]
  DNA polymerase-mediated primer extension with XNTPs (length of extension products): considerably longer extension products

## O=C(O)c1ccc(-n2cc(-c3ccc4[nH]c5ccc(-c6cn(-c7ccc(C(=O)O)c(O)c7)nn6)cc5c4c3)nn2)cc1O [Compound 4, 4,4′-((9H-carbazole-3,6-diyl)bis(1H-1,2,3-triazole-4,1-diyl))bis(2-hydroxybenzoic acid)]
[1]
  DNA polymerase-mediated primer extension with XNTPs (length of extension products): considerably longer extension products

## COc1cc(-c2cn(-c3ccc(C(=O)O)c(O)c3)nn2)nc(-c2cn(-c3ccc(C(=O)O)c(O)c3)nn2)c1 [Compound 9, 4,4′-((4-methoxypyridine-2,6-diyl)bis(1H-1,2,3-triazole-4,1-diyl))bis(2-hydroxybenzoic acid)]
[2]
  polymerization of XNTPs into full length Xpandomer copies (PEM activity): enable XNTP polymerization at least as efficiently as compound 1

## O=C(O)c1ccc(-n2cc(-c3cc([N+](=O)[O-])cc(-c4cn(-c5ccc(C(=O)O)c(O)c5)nn4)n3)nn2)cc1O [Compound 11, 4,4′-((4-nitropyridine-2,6-diyl)bis(1H-1,2,3-triazole-4,1-diyl))bis(2-hydroxybenzoic acid)]
[2]
  polymerization of XNTPs into full length Xpandomer copies (PEM activity): enable XNTP polymerization at least as efficiently as compound 1

## CCNC(=O)c1cc(-c2cn(-c3ccc(C(=O)O)c(O)c3)nn2)nc(-c2cn(-c3ccc(C(=O)O)c(O)c3)nn2)c1 [Compound 17, 4,4′-((4-(ethylcarbamoyl)pyridine-2,6-diyl)bis(1H-1,2,3-triazole-4,1-diyl))bis(2-hydroxybenzoic acid)]
[3]; 2 Mm compound 16, 0.5, 1, 2, and 3 Mm compound 17, Kod SSB, 30 minutes at 37° C., FIG. 13
  polymerization of XNTPs into lengthy Xpandomer copies (PEM activity): enable polymerization of XNTPs into lengthy Xpandomer copies of the 100mer template in a manner comparable to that of compound 14
[3]; combination of 2 Mm compound 14 and 0.1 Mm or 0.3 Mm compound 17, FIG. 13 lanes 7-9
  polymerization of XNTPs into lengthy Xpandomer copies, combination of PEMs: also enabled polymerization of XNTPs into lengthy Xpandomer copies of the 100mer template
[4]
  PEM activity on an RNA template: display PEM activity on an RNA template

## CNC(=O)c1cc(-c2cn(-c3ccc(C(=O)O)c(O)c3)nn2)nc(-c2cn(-c3ccc(C(=O)O)c(O)c3)nn2)c1 [Compound 18, 4,4′-((4-(methylcarbamoyl)pyridine-2,6-diyl)bis(1H-1,2,3-triazole-4,1-diyl))bis(2-hydroxybenzoic acid)]
[3]; combination of 2 Mm compound 16 and 0.1 Mm or 0.3 Mm compound 18, FIG. 13 lanes 10-12
  polymerization of XNTPs into full length copies, combination of PEMs: enable polymerization of XNTPS into full length copies of the 100mer template
